Results reported in ChEMBL document CHEMBL1157348, “The alkaloid conessine and analogues as potent histamine H3 receptor antagonists” (J Med Chem, 2008).

Assays:
[1] = target: Histamine H3 receptor (Cavia porcellus) (UniProt Q9JI35); conditions: Ileum
[2] = target: T1, Histamine H3 receptor (Homo sapiens, UniProt Q9Y5N1); conditions: C6
[3] = Displacement of [3H]LY278584 from 5HT2 receptor in rat frontal cortex; type: tissue-based
[4] = Displacement of [3H]LY278584 from 5HT3 receptor in rat frontal cortex; type: tissue-based
[5] = target: Histamine H3 receptor (Rattus norvegicus) (UniProt Q9QYN8); test: Antagonist activity at rat full length histamine H3 receptor expressed in rat C6 cells assessed as inhibition of [35S]gammaGTP binding relative to control; type: cell-based
[6] = Displacement of [3H]LY278584 from 5HT1 receptor in rat frontal cortex; type: tissue-based
[7] = target: Histamine H3 receptor (Rattus norvegicus) (UniProt Q9QYN8); test: Antagonist activity at rat full length histamine H3 receptor assessed as inhibition of (R)-alpha-methylhistamine-induced intracellular calcium release by FLIPR; type: functional, cell-based
[8] = target: Histamine H3 receptor (Rattus norvegicus) (UniProt Q9QYN8); test: Antagonist activity at rat full length histamine H3 receptor expressed in HEK cells assessed as inhibition of forskolin-induced cAMP accumulation by SPA; conditions: HEK293
[9] = target: T1, Histamine H3 receptor; conditions: HEK293
[10] = target: T1, Histamine H3 receptor; test: Antagonist activity at human full length histamine H3 receptor expressed in HEK293 cells assessed as inhibition of (R)-alpha-methylhistamine-induced intracellular calcium release by FLIPR; type: functional, cell-based
[11] = target: T2, Histamine H3 receptor (Rattus norvegicus, UniProt Q9QYN8); test: Displacement of [3H]NAMH from rat full length histamine H3 receptor expressed in rat C6 cells; type: cell-based
[12] = target: T1, Histamine H3 receptor; test: Displacement of [3H]NAMH from human full length histamine H3 receptor expressed in rat C6 cells; type: cell-based
[13] = target: T2, Histamine H3 receptor; test: Displacement of [3H]NAMH from histamine H3 receptor in rat cortex
[14] = Oral bioavailability in rat; type: ADME, organism-based; conditions: in vivo
[15] = target: Histamine H3 receptor (Cavia porcellus, UniProt Q9JI35); test: Antagonist activity at histamine H3 receptor in guinea pig ileum assessed as inhibition of (R)-alpha-methylhistamine-induced response
[16] = Plasma concentration in rat at 1 mg/kg, ip after 1 hr; type: ADME, organism-based; set-up: dose 1 mg/kg, route intraperitoneal
[17] = Drug level in rat brain at 1 mg/kg, ip after 1 hr; type: ADME, organism-based; set-up: dose 1 mg/kg, route intraperitoneal; conditions: read-out: Drug uptake
[18] = Ratio of drug level in brain to plasma at 1 mg/kg, ip after 1 hr; type: ADME, organism-based; set-up: dose 1 mg/kg, route intraperitoneal; conditions: rat
[19] = target: Histamine H1 receptor (Homo sapiens, UniProt P35367); test: Displacement of [3H]mepyramine from human histamine H1 receptor; conditions: read-out: pKi (converted)
[20] = target: T1, Histamine H3 receptor; test: Displacement of [3H]NAMH from histamine H3 receptor in human cortex
[21] = Plasma concentration in rat at 1 mg/kg, ip after 5 hrs; type: ADME, organism-based; set-up: dose 1 mg/kg, route intraperitoneal
[22] = Selectivity ratio for human adrenergic alpha 2C4 receptor over human H3 receptor
[23] = target: Histamine H4 receptor (Homo sapiens, UniProt Q9H3N8); test: Displacement of [3H]histamine from human histamine H4 receptor expressed in HEK cells; type: cell-based, HEK293; conditions: read-out: pKi (converted)
[24] = Drug level in rat blood at 1 mg/kg, ip after 24 hrs; type: ADME, organism-based; set-up: dose 1 mg/kg, route intraperitoneal; conditions: read-out: Drug uptake
[25] = test system: Rattus norvegicus; test: Toxicity in rat assessed as CNS side effects at 1.3 to 13 mg/kg, ip; type: organism-based; set-up: dose 1.3-13 mg/kg, route intraperitoneal; conditions: in vivo
[26] = Ratio of drug level in brain to plasma at 1 mg/kg, ip after 24 hrs; type: ADME, organism-based; set-up: dose 1 mg/kg, route intraperitoneal; conditions: rat
[27] = Ratio of drug level in brain to plasma at 1 mg/kg, ip after 5 hrs; type: ADME, organism-based; set-up: dose 1 mg/kg, route intraperitoneal; conditions: rat
[28] = target: T3, Alpha-2A adrenergic receptor (Homo sapiens, UniProt P08913); test: Displacement of [3H]rauwolscine from human adrenergic alpha 2C10 receptor expressed in mouse LTK- cells; type: cell-based
T3 sequence (P08913 whole entry): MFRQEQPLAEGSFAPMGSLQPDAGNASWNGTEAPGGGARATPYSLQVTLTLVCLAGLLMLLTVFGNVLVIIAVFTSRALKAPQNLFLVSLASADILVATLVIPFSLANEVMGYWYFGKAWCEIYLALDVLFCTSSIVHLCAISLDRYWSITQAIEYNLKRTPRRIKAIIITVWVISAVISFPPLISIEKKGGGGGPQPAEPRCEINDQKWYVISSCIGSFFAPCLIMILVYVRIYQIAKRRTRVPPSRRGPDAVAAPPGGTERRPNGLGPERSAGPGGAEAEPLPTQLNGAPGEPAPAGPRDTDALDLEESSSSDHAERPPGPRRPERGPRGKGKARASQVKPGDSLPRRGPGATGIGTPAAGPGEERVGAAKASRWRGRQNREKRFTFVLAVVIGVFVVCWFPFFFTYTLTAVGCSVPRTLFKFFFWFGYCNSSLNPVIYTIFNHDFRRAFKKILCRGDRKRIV

[29] = Drug level in rat brain at 1 mg/kg, ip after 24 hrs; type: ADME, organism-based; set-up: dose 1 mg/kg, route intraperitoneal; conditions: read-out: Drug uptake
[30] = Drug level in rat blood at 1 mg/kg, ip after 1 hr; type: ADME, organism-based; set-up: dose 1 mg/kg, route intraperitoneal; conditions: read-out: Drug uptake
[31] = Plasma concentration in rat at 1 mg/kg, ip after 24 hrs; type: ADME, organism-based; set-up: dose 1 mg/kg, route intraperitoneal
[32] = Drug level in rat blood at 1 mg/kg, ip after 5 hrs; type: ADME, organism-based; set-up: dose 1 mg/kg, route intraperitoneal; conditions: read-out: Drug uptake
[33] = target: T4, Alpha-2C adrenergic receptor (Homo sapiens, UniProt P18825); test: Displacement of [3H]rauwolscine from human adrenergic alpha 2C4 receptor expressed in mouse LTK- cells; type: cell-based
T4 sequence (P18825 whole entry): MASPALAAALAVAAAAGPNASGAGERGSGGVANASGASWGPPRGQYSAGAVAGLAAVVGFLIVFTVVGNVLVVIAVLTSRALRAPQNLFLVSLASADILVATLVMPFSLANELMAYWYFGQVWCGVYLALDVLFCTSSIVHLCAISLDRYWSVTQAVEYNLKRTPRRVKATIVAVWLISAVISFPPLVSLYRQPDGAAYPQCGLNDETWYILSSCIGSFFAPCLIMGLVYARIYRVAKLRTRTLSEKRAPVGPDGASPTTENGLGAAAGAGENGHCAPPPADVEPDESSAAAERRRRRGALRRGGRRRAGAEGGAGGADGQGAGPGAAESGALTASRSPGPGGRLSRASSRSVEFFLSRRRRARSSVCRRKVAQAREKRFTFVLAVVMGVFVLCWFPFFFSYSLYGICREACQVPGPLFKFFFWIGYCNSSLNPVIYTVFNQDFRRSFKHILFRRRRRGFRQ

[34] = Drug level in rat brain at 1 mg/kg, ip after 5 hrs; type: ADME, organism-based; set-up: dose 1 mg/kg, route intraperitoneal; conditions: read-out: Drug uptake
[35] = target: Histamine H2 receptor (Homo sapiens, UniProt P25021); test: Displacement of [3H]tiotidine from human histamine H2 receptor; conditions: read-out: pKi (converted)
Histamine H2 receptor, sequence (P25021 whole entry): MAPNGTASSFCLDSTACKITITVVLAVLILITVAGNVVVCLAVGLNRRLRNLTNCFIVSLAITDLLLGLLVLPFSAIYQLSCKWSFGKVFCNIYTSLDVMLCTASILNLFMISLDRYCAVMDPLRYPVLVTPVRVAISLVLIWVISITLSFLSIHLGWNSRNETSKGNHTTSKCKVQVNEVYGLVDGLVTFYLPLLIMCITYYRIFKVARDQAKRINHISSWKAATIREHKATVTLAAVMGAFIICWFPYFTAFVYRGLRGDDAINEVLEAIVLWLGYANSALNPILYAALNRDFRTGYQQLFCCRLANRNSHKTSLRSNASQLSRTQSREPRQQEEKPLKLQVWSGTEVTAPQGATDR

T1 sequence (Q9Y5N1 whole entry): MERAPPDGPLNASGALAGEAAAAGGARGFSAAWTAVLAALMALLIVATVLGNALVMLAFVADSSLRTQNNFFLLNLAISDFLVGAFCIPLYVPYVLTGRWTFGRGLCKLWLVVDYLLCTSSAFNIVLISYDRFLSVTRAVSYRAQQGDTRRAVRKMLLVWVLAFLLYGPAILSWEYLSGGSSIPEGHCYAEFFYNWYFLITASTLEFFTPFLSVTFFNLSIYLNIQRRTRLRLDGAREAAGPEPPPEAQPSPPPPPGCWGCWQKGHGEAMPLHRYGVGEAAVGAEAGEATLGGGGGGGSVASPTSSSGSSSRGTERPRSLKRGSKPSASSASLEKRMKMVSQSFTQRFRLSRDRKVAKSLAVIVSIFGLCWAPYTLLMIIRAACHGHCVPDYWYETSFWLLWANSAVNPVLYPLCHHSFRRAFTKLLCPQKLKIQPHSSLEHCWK
Histamine H3 receptor (Cavia porcellus, UniProt Q9JI35), sequence (Q9JI35 whole entry): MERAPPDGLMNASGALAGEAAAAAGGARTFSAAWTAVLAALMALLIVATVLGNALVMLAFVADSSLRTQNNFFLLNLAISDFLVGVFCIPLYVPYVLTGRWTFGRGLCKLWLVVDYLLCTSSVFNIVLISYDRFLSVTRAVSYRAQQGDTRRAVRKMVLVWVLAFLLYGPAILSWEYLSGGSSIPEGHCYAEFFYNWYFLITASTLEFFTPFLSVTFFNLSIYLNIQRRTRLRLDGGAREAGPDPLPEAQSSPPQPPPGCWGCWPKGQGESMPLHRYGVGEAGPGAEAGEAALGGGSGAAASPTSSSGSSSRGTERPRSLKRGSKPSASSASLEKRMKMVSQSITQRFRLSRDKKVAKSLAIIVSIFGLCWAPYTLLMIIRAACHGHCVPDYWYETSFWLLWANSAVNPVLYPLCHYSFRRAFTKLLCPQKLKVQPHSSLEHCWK
T2 sequence (Q9QYN8 whole entry): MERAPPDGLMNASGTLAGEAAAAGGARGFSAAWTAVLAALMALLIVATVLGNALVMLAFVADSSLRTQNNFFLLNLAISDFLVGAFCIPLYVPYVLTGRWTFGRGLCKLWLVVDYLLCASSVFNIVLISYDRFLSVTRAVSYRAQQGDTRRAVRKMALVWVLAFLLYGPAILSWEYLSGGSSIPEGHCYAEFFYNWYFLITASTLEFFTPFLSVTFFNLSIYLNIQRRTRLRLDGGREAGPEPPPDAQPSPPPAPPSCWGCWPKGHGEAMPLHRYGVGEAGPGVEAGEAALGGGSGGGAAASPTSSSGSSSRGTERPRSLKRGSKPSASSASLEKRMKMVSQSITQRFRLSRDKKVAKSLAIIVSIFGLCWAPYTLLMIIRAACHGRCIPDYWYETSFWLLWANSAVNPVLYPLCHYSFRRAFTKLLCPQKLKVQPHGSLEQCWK
Histamine H3 receptor (Rattus norvegicus), sequence (Q9QYN8 whole entry): as above
Histamine H1 receptor, sequence (P35367 whole entry): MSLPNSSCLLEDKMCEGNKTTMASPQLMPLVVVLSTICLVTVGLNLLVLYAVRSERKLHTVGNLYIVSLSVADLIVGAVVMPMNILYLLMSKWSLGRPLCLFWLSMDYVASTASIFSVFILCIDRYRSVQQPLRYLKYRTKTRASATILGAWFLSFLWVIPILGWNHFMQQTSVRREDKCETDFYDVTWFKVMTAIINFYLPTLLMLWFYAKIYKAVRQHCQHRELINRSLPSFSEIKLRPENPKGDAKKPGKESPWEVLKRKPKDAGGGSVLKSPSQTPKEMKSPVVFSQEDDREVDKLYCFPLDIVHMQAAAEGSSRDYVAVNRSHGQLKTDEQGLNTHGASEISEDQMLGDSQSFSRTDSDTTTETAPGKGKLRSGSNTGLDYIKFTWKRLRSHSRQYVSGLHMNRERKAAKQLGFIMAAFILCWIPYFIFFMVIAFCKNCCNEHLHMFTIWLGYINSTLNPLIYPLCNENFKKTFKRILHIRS
Histamine H4 receptor, sequence (Q9H3N8 whole entry): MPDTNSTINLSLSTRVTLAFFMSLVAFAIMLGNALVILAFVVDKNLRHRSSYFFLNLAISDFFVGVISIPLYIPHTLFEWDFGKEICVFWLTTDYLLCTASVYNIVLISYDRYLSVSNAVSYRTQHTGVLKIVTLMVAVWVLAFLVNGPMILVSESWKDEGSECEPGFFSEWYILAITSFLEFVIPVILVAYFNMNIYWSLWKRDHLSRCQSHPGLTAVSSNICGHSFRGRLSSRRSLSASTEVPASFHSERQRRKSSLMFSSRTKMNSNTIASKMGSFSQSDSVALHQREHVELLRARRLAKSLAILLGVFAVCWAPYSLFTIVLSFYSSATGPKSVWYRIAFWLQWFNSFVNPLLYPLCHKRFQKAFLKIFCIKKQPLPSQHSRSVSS
Histamine H3 receptor (Cavia porcellus), sequence (Q9JI35 whole entry): as the sequence (Q9JI35 whole entry) above

## O=C(c1ccc(OCCCc2c[nH]cn2)cc1)C1CC1 [CIPROXIFAN]
[1]
  pKb: 8.12
[2]
  pKb: 6.59
[3]
  pKi: 4.73
[4]
  pKi: 6.52
[5]
  pKb: 8.78
[6]
  pKi: 4.78
[7]
  pKb: 9.42
[8]
  pKb: 9.2
[9]
  pKb: 7.07
[10]
  pKb: 6.84

## C[C@H]1[C@H]2CC[C@H]3[C@@H]4CC=C5C[C@@H](N(C)C(=O)OCC(Cl)(Cl)Cl)CC[C@]5(C)[C@H]4CC[C@]23CN1C
[11]; read-out: Ki
  Ki: 7.91 nM
[12]
  Ki: 19.7 nM

## C[C@H]1[C@H]2CC[C@H]3[C@@H]4CC=C5C[C@@H](N(C)C(=O)Cc6cccs6)CC[C@]5(C)[C@H]4CC[C@]23CN1C
[13]; read-out: Ki
  Ki: 11.2 nM
[14]
  bioavailability: 4.5%
[12]
  Ki: 3.31 nM

## S=C(NC1CCCCC1)N1CCC(c2cnc[nH]2)CC1 [THIOPERAMIDE]
[2]
  pKb: 6.1
[3]
  pKi: 5.25
[4]
  pKi: 5.64
[5]
  pKb: 8.13
[15]
  Kb: 3.63 nM
[13]; read-out: pKi (converted)
  Ki: 7.08 nM
[6]
  pKi: 4.95
[7]
  pKb: 9.11
[8]
  pKb: 7.61
[9]
  pKb: 7.39
[10]
  pKb: 6.82

## C[C@H]1[C@H]2CC[C@H]3[C@@H]4CC=C5C[C@@H](N(C)S(=O)(=O)N(C)C)CC[C@]5(C)[C@H]4CC[C@]23CN1C
[13]; read-out: Ki
  Ki: 240 nM
[12]
  Ki: 30.9 nM

## C[C@H]1[C@H]2CC[C@H]3[C@@H]4CC=C5C[C@@H](N(C)C)CC[C@]5(C)[C@H]4CC[C@]23CN1C [CONESSINE]
[16]
  concentration at 1 h: 148 ng/mL
[17]
  concentration at 1 h: 6570 ng/g
[18]
  Kp at 1 h: 46
[19]
  Ki: > 10000 nM
[20]
  Ki: 3.47 nM
[21]
  concentration at 5 h: 89 ng/mL
[22]
  Selectivity ratio: 2
[2]
  pKb: 6.14
[3]
  pKi: < 5
[23]
  Ki: > 10000 nM
[4]
  pKi: < 5
[24]
  concentration at 24 h: 102 ng/mL
[25]
  Activity: Non-toxic
[11]; read-out: pKi (converted)
  Ki: 12.3 nM
[26]
  Kp at 24 h: 114
[27]
  Kp at 5 h: 95.4
[15]
  Kb: 282 nM
[28]
  Ki: 661 nM
[29]
  concentration at 24 h: 4140 ng/g
[30]
  concentration at 1 h: 444 ng/mL
[13]; read-out: pKi (converted)
  Ki: 24.5 nM
[31]
  concentration at 24 h: 37 ng/mL
[6]
  pKi: 5.72
[32]
  concentration at 5 h: 306 ng/mL
[8]
  pKb: 6.99
[12]
  Ki: 5.37 nM
[33]
  Ki: 10.6 nM
[9]
  pKb: 7.96
[10]
  pKb: 8.08
[34]
  concentration at 5 h: 6800 ng/g
[35]
  Ki: > 10000 nM

## C[C@H]1[C@H]2CC[C@H]3[C@@H]4CC=C5C[C@@H](N(C)C(=O)N(C)C)CC[C@]5(C)[C@H]4CC[C@]23CN1C
[13]; read-out: Ki
  Ki: 295 nM
[12]
  Ki: 50.1 nM

## C[C@H]1[C@H]2CC[C@H]3[C@@H]4CC=C5C[C@@H](N(C)C(=O)c6ccc(C#N)cc6)CC[C@]5(C)[C@H]4CC[C@]23CN1C
[13]; read-out: Ki
  Ki: 195 nM
[12]
  Ki: 39.8 nM

## COc1ccc(C/C(=N\O)C(=O)NCCc2c[nH]cn2)cc1Br [VERONGAMINE]
[15]
  IC50: 830 nM

## CC(=O)N[C@@H](Cc1ccccc1)C(=O)N(C)[C@H]1CC[C@@]2(C)C(=CC[C@H]3[C@@H]4CC[C@@H]5[C@H](C)N(C)C[C@@]54CC[C@@H]32)C1
[13]; read-out: Ki
  Ki: 2.29 nM
[12]
  Ki: 1.15 nM

## NCCC(=O)NCCc1c[nH]cn1 [CARCININE]
[11]; read-out: Ki
  Ki: 294 nM

## C[C@H]1[C@H]2CC[C@H]3[C@@H]4CC=C5C[C@@H](N(C)S(=O)(=O)c6ccc(C#N)cc6)CC[C@]5(C)[C@H]4CC[C@]23CN1C
[13]; read-out: Ki
  Ki: 138 nM
[12]
  Ki: 19 nM

## C[C@H]1[C@H]2CC[C@H]3[C@@H]4CC=C5C[C@@H](N(C)C(=O)c6ccccc6)CC[C@]5(C)[C@H]4CC[C@]23CN1C
[13]; read-out: Ki
  Ki: 38 nM
[12]
  Ki: 12.3 nM
